Results from PMC10187937, “Streptothricin F is a bactericidal antibiotic effective against highly drug-resistant gram-negative bacteria that interacts with the 30S subunit of the 70S ribosome” (PLOS Biology, 2023).
≈ marks a conversion by molar mass, not a printed value. Read-outs that look alike come from different tables or passages of the source.

Experiments:
[1] = system: T1, Klebsiella pneumoniae FDA-CDC 34; assay: microbe, parasite or virus in culture; design: broth microdilution minimal inhibitory concentration against multidrug-resistant clinical isolates
T1 construct: FDA-CDC 34
From the text: (§1) Using broth microdilution minimal inhibitory concentration (MIC) testing, we determined the MIC of S-F, S-D, and nourseothricin for a large group of multidrug-resistant CRE. These included strains expressing metallo- and/or serine carbapenemases and the pandrug-resistant, NDM-1–expressing Klebsiella pneumoniae Nevada strain, AR-0663 [18]. For these CRE (n = 39), MIC50 and MIC90 for S-F, S-D, and nourseothricin, respectively, were 2 and 4 (range 1 to 4) μM; 0.25 and 0.5 (range 0.25 to 2) μM; and 0.5 and 1 (range 0.25 to 2) μM. The average MIC was 5.6-fold greater for S-F than for S-D and 4.2-fold greater for S-F than for nourseothricin. […] CRE isolates were from the FDA-CDC Antimicrobial Resistance Isolate Bank (AR-Bank) including the Nevada Strain (AR-0636) and the BIDMC clinical collection sequenced as part of the CRE genomics project. A. baumannii isolates were from the AR-Bank and the Multidrug Resistant Organism Repository and Surveillance Network (MRSN) at the Walter Reed Army Institute of Research (WRAIR). Strains are listed in S3 Table. The single ribosomal operon strain, E. coli SQ110, was from the Coli Genetics Stock Center (Yale University, New Haven, CT) and was originally described by Squire and colleagues.

[2] = system: T2, Escherichia coli FDA-CDC 119; assay: microbe, parasite or virus in culture; design: broth microdilution minimal inhibitory concentration against multidrug-resistant clinical isolates; settings: FDACDC119, NDM
T2 construct: FDA-CDC 119
From the text: as §1

[3] = system: T3, Escherichia coli FDA-CDC 128; assay: microbe, parasite or virus in culture; design: broth microdilution minimal inhibitory concentration against multidrug-resistant clinical isolates
T3 construct: FDA-CDC 128
From the text: as §1

[4] = system: T4, Escherichia coli FDA-CDC 137; assay: microbe, parasite or virus in culture; design: broth microdilution minimal inhibitory concentration against multidrug-resistant clinical isolates
T4 construct: FDA-CDC 137
From the text: as §1

[5] = system: T5, Acinetobacter baumannii FDA-CDC 311; assay: microbe, parasite or virus in culture; design: broth microdilution minimal inhibitory concentration against multidrug-resistant clinical isolates
T5 construct: FDA-CDC 311
From the text: as §1

[6] = system: T6, Klebsiella pneumoniae CDC 636; assay: microbe, parasite or virus in culture; design: broth microdilution minimal inhibitory concentration against multidrug-resistant clinical isolates; settings: CDC636, NDM
T6 construct: CDC 636
From the text: as §1

[7] = system: T7, Acinetobacter baumannii FDA-CDC 308; assay: microbe, parasite or virus in culture; design: broth microdilution minimal inhibitory concentration against multidrug-resistant clinical isolates
T7 construct: FDA-CDC 308
From the text: as §1

[8] = system: T8, Acinetobacter baumannii FDA-CDC 309; assay: microbe, parasite or virus in culture; design: broth microdilution minimal inhibitory concentration against multidrug-resistant clinical isolates
T8 construct: FDA-CDC 309
From the text: as §1

[9] = system: T9, Enterobacter aerogenes FDA-CDC 161; assay: microbe, parasite or virus in culture; design: broth microdilution minimal inhibitory concentration against multidrug-resistant clinical isolates; settings: Klebsiella aerogenes, FDACDC161, IMP-4
T9 construct: FDA-CDC 161
From the text: as §1

[10] = system: T10, Escherichia coli FDA-CDC 118; assay: microbe, parasite or virus in culture; design: broth microdilution minimal inhibitory concentration against multidrug-resistant clinical isolates; settings: FDACDC118, NDM
T10 construct: FDA-CDC 118
From the text: as §1

[11] = system: T11, Escherichia coli FDA-CDC 149; assay: microbe, parasite or virus in culture; design: broth microdilution minimal inhibitory concentration against multidrug-resistant clinical isolates; settings: FDACDC149, NDM
T11 construct: FDA-CDC 149
From the text: as §1

[12] = system: T12, Acinetobacter baumannii FDA-CDC 310; assay: microbe, parasite or virus in culture; design: broth microdilution minimal inhibitory concentration against multidrug-resistant clinical isolates
T12 construct: FDA-CDC 310
From the text: as §1

[13] = system: T13, Klebsiella pneumoniae BIDMC 10; design: broth microdilution minimal inhibitory concentration against multidrug-resistant clinical isolates; settings: KPC-3; inhibitor
T13 construct: BIDMC 10
From the text: as §1

[14] = system: T14, Klebsiella pneumoniae BIDMC 5; design: broth microdilution minimal inhibitory concentration against multidrug-resistant clinical isolates; settings: KPC-3; inhibitor
T14 construct: BIDMC 5
From the text: as §1

[15] = system: T15, Klebsiella oxytoca FDA-CDC 147; design: broth microdilution minimal inhibitory concentration against multidrug-resistant clinical isolates; settings: KPC; inhibitor
T15 construct: FDA-CDC 147
From the text: as §1

[16] = system: T16, Klebsiella pneumoniae FDA-CDC 117; design: broth microdilution minimal inhibitory concentration against multidrug-resistant clinical isolates; settings: KPC-3; inhibitor
T16 construct: FDA-CDC 117
From the text: as §1

[17] = system: T17, Enterobacter cloacae FDA-CDC 136; design: broth microdilution minimal inhibitory concentration against multidrug-resistant clinical isolates; settings: KPC; inhibitor
T17 construct: FDA-CDC 136
From the text: as §1

[18] = system: T18, Klebsiella pneumoniae BIDMC 11; design: broth microdilution minimal inhibitory concentration against multidrug-resistant clinical isolates; settings: KPC-4; inhibitor
T18 construct: BIDMC 11
From the text: as §1

Escherichia coli BIDMC 6 = system: T19, Escherichia coli BIDMC 6; design: broth microdilution minimal inhibitory concentration against multidrug-resistant clinical isolates; settings: KPC-2; inhibitor
T19 construct: BIDMC 6
From the text: as §1

[19] = system: T20, Escherichia coli BIDMC 15; design: broth microdilution minimal inhibitory concentration against multidrug-resistant clinical isolates; settings: KPC-2; inhibitor
T20 construct: BIDMC 15
From the text: as §1

[20] = system: T21, Klebsiella pneumoniae BIDMC 2; design: broth microdilution minimal inhibitory concentration against multidrug-resistant clinical isolates; settings: KPC-3; inhibitor
T21 construct: BIDMC 2
From the text: as §1

Escherichia coli BIDMC 9 = system: T22, Escherichia coli BIDMC 9; design: broth microdilution minimal inhibitory concentration against multidrug-resistant clinical isolates; settings: KPC-2; inhibitor
T22 construct: BIDMC 9
From the text: as §1

[21] = system: T23, Escherichia coli BIDMC 17; design: broth microdilution minimal inhibitory concentration against multidrug-resistant clinical isolates; settings: KPC-2; inhibitor
T23 construct: BIDMC 17
From the text: as §1

Escherichia coli BIDMC 3 = system: T24, Escherichia coli BIDMC 3; design: broth microdilution minimal inhibitory concentration against multidrug-resistant clinical isolates; settings: KPC-2; inhibitor
T24 construct: BIDMC 3
From the text: as §1

[22] = system: T25, Enterobacter cloacae BIDMC 8; design: broth microdilution minimal inhibitory concentration against multidrug-resistant clinical isolates; settings: KPC-3; inhibitor
T25 construct: BIDMC 8
From the text: as §1

[23] = system: T26, Klebsiella pneumoniae BIDMC 7; design: broth microdilution minimal inhibitory concentration against multidrug-resistant clinical isolates; settings: KPC-3; inhibitor
T26 construct: BIDMC 7
From the text: as §1

[24] = system: T27, Klebsiella pneumoniae BIDMC 1; design: broth microdilution minimal inhibitory concentration against multidrug-resistant clinical isolates; settings: KPC-3; inhibitor
T27 construct: BIDMC 1
From the text: as §1

[25] = system: T28, Klebsiella pneumoniae BIDMC 4; design: broth microdilution minimal inhibitory concentration against multidrug-resistant clinical isolates; settings: KPC-3; inhibitor
T28 construct: BIDMC 4
From the text: as §1

[26] = target: T29, rProtein L28 (50S, near the E-site of the A. baumannii 70S ribosome) (Acinetobacter baumannii, UniProt B7I4T0); assay: cryo-EM structure of complex; assay type: binding; settings: 0.1 uM ribosome, 100 uM ligand (not seen at 10 uM); second site, 50S near E-site; presumably nonspecific per authors
T29 construct: gene rpmB; native 50S ribosomal protein within purified 70S ribosome; site near the E-site, contact at H20
T29 sequence (B7I4T0 whole entry): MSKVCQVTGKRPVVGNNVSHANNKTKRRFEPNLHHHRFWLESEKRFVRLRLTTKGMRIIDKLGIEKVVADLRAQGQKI

`NCCC[C@H](N)CC(=O)NCCC[C@H](N)CC(=O)NCCC[C@H](N)CC(=O)N[C@@H]1[C@H](O)[C@@H](OC(N)=O)[C@@H](CO)O[C@H]1NC1=N[C@@H]2C(=O)NC[C@@H](O)[C@H]2N1` [S-D, streptothricin D] was tested, and the MIC ([1]; FDACDC34, IMP-4, read-out: S-D MIC) was 0.25 µM (≈ 0.19 µg/mL), the MIC ([2]; read-out: S-D MIC) was 0.5 µM (≈ 0.379 µg/mL) and the MIC ([3]; FDACDC128, NDM-1, read-out: S-D MIC) was 1 µM (≈ 0.759 µg/mL). The MIC ([4]; FDACDC137, NDM-6, read-out: S-D MIC) was 0.5 µM (≈ 0.379 µg/mL), the MIC ([5]; FDACDC311, OXA-23, OXA-82, read-out: S-D MIC) was 2 µM (≈ 1.52 µg/mL) and the MIC ([6]; read-out: S-D MIC) was 0.25 µM (≈ 0.19 µg/mL). It also gave an MIC ([7]; FDACDC308, OXA-71, read-out: S-D MIC) of 0.25 µM (≈ 0.19 µg/mL), an MIC ([8]; FDACDC309, OXA-23, OXA-82, read-out: S-D MIC) of 2 µM (≈ 1.52 µg/mL) and an MIC ([9]; read-out: S-D MIC) of 0.5 µM (≈ 0.379 µg/mL). It also gave an MIC ([10]; read-out: S-D MIC) of 1 µM (≈ 0.759 µg/mL), an MIC ([11]; read-out: S-D MIC) of 0.5 µM (≈ 0.379 µg/mL) and an MIC ([12]; FDACDC310, OXA-23, OXA-82, read-out: S-D MIC) of 2 µM (≈ 1.52 µg/mL). The “S-D MIC” value [13] was 0.25 µM, the “S-D MIC” value [14] was 0.25 µM and the “S-D MIC” value [15] was 0.25 µM. The “S-D MIC” value [16] was 0.25 µM, the “S-D MIC” value [17] was 0.5 µM and the “S-D MIC” value [18] was 0.25 µM. For the same compound, the “S-D MIC” value (Escherichia coli BIDMC 6) was 0.5 µM, the “S-D MIC” value [19] was 0.5 µM and the “S-D MIC” value [20] was 0.25 µM. For the same compound, the “S-D MIC” value (Escherichia coli BIDMC 9) was 0.5 µM, the “S-D MIC” value [21] was 0.5 µM and the “S-D MIC” value (Escherichia coli BIDMC 3) was 0.5 µM. For the same compound, the “S-D MIC” value [22] was 0.25 µM, the “S-D MIC” value [23] was 0.25 µM and the “S-D MIC” value [24] was 0.25 µM. The “S-D MIC” value [25] was 0.25 µM.

Compound `NCCC[C@H](N)CC(=O)N[C@@H]1[C@H](O)[C@@H](OC(N)=O)[C@@H](CO)O[C@H]1N=C1N[C@@H]2[C@H](O)CNC(=O)[C@H]2N1` [S-F, streptothricin F] has an MIC ([1]; FDACDC34, IMP-4, read-out: S-F MIC) of 2 µM (≈ 1.01 µg/mL), an MIC ([2]; read-out: S-F MIC) of 4 µM (≈ 2.01 µg/mL) and an MIC ([3]; FDACDC128, NDM-1, read-out: S-F MIC) of 4 µM (≈ 2.01 µg/mL). The MIC ([4]; FDACDC137, NDM-6, read-out: S-F MIC) was 2 µM (≈ 1.01 µg/mL), the MIC ([5]; FDACDC311, OXA-23, OXA-82, read-out: S-F MIC) was 8 µM (≈ 4.02 µg/mL) and the MIC ([6]; read-out: S-F MIC) was 1 µM (≈ 0.503 µg/mL). For the same compound, the MIC ([7]; FDACDC308, OXA-71, read-out: S-F MIC) was 1 µM (≈ 0.503 µg/mL), the MIC ([8]; FDACDC309, OXA-23, OXA-82, read-out: S-F MIC) was 8 µM (≈ 4.02 µg/mL) and the MIC ([9]; read-out: S-F MIC) was 2 µM (≈ 1.01 µg/mL). It also gave an MIC ([10]; read-out: S-F MIC) of 4 µM (≈ 2.01 µg/mL), an MIC ([11]; read-out: S-F MIC) of 4 µM (≈ 2.01 µg/mL) and an MIC ([12]; FDACDC310, OXA-23, OXA-82, read-out: S-F MIC) of 8 µM (≈ 4.02 µg/mL). The “cryo-EM structure of 70S complex” value [26] was “S-F and S-D overlap at this site, interacting with H20 of rProtein L28”, the “S-F MIC” value [13] was 2 µM and the “S-F MIC” value [14] was 2 µM. The “S-F MIC” value [15] was 2 µM, the “S-F MIC” value [16] was 1 µM and the “S-F MIC” value [17] was 2 µM. For the same compound, the “S-F MIC” value [18] was 2 µM, the “S-F MIC” value (Escherichia coli BIDMC 6) was 2 µM and the “S-F MIC” value [19] was 2 µM. For the same compound, the “S-F MIC” value [20] was 4 µM, the “S-F MIC” value (Escherichia coli BIDMC 9) was 4 µM and the “S-F MIC” value [21] was 2 µM. For the same compound, the “S-F MIC” value (Escherichia coli BIDMC 3) was 4 µM, the “S-F MIC” value [22] was 4 µM and the “S-F MIC” value [23] was 2 µM. The “S-F MIC” value [24] was 2 µM and the “S-F MIC” value [25] was 2 µM.
